Assay results from US11065231B2, “Compounds and methods for the targeted degradation of interleukin-1 receptor- associated kinase 4 polypeptides” (Arvinas Operations, Inc., priority 2017, dated 2021).

How the values were obtained:
IRAK4 [1] = target: T1, IRAK4 (Homo sapiens (Human), UniProt Q9NWZ3); assay: ELISA assay for IRAK4 degradation in MCF7 cells; type: cell-based; details: Table 1, 24 hours
Description: Enzyme-Linked Immunosorbent Assay (ELISA) Assay for IRAK4 Degradation.
MCF7 cells, purchased from ATCC (Manassas, Va.), were used at a passage range of 2-19. Cells were prepared and treated with compounds for 24 hours, exactly as described above for the Western blots. The ELISA assay was performed using the kit and instructions described by Abcam (cat. #: ab213472, Abcam Biotechnology, Cambridge, Mass.). Table 1 below provides and compares the ELISA IRAK4 degradation data to the western blot IRAK 4 degradation data for Examples 2, 3, 4, and 5. Furthermore, FIG. 5 is a graph illustrating the ELISA IRAK4 degradation data.

IRAK4 [2] = target: T1, IRAK4; assay: Biochemical Z'-Lyte FRET assay for IRAK4 kinase inhibition; details: 2 nM enzyme, 1 mM ATP, 2 μM substrate
Outline: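 Z′-Lyte FRET phosphorylation of Ser/Thr 7 peptide (2 µM) by 2 nM recombinant IRAK4 at 1 mM ATP in HEPES pH 7.5 with MgCl2/MnCl2, after 10 min enzyme–compound preincubation; 1 h at room temperature, then 1 h development, 460/530 nm emission. Duplicate 12-point, 3-fold curves from 30 µM; IC50 from percent inhibition against ±100% controls.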

IRAK4 [3] = target: T1, IRAK4; assay: Western blot assay for assessing degradation of IRAK4 in MCF7 cells; type: cell-based
Outline: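 MCF7 cells were treated 24 h with serially diluted compound (0.1% DMSO final), then lysed in RIPA. IRAK4 and IRAK1 levels were measured by western blot with β-actin probed alongside. Percent degradation compared compound-treated with DMSO-treated lysates.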

IRAK4 [4] = target: T1, IRAK4; assay: Western blots of IRAK4 protein degradation; type: cell-based; details: from western blots
[5] = Table 5, IRAK4 degradation, 24 hour incubation, read-out: IRAK4 DC50
[6] = Table 5, IRAK4 degradation, 24 hour incubation, read-out: IRAK4 Dmax (%)

T1 sequence (Q9NWZ3 whole entry): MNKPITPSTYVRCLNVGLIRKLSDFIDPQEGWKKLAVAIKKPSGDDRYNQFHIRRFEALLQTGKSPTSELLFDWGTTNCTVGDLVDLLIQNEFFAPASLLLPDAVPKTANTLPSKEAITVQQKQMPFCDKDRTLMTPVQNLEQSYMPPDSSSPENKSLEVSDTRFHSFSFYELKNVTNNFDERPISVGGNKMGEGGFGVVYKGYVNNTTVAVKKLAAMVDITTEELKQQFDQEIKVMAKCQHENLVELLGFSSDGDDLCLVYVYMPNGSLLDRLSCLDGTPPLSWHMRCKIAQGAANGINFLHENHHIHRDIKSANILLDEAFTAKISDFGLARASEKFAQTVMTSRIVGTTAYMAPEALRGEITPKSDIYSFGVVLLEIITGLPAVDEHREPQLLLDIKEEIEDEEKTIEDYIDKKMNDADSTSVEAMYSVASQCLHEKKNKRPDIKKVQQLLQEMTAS

Compound | IC50 (IRAK4 [2]) [µM] | DC50 (IRAK4 [3]; [5]) [µM] | other results
CN(CCOCCOCCOc1ccc2c(c1)C(=O)N(C1CCC(=O)NC1=O)C2=O)c1cccc(-n2c(NC(=O)c3cccc(C(F)(F)F)c3)nc3cc(F)ccc32)c1 (centres unmarked) [compound 49, N-(1-(3-((2-(2-(2-((2-(2,6-dioxopiperidin-3-yl)-1,3-dioxoisoindolin-5-yl)oxy)ethoxy)ethoxy)ethyl) (methyl)amino)phenyl)-5-fluoro-1H-benzo[d]imidazol-2-yl)-3-(trifluoromethyl)benzamide] | ≥ 1 | ≥ 1 | 
CN(CCOc1ccc2c(c1)C(=O)N(C1CCC(=O)NC1=O)C2=O)c1cccc(-n2c(NC(=O)c3cccc(C(F)(F)F)c3)nc3cc(F)ccc32)c1 (centres unmarked) [compound 50, N-(1-(3-((2-((2-(2,6-dioxopiperidin-3-yl)-1,3-dioxoisoindolin-5-yl)oxy)ethyl)(methyl)amino)phenyl)-5-fluoro-1H-benzo[d]imidazol-2-yl)-3-(trifluoromethyl)benzamide] | ≥ 1 | ≥ 1 | 
COc1cccc(-n2c(NC(=O)c3cccc(C(F)(F)F)c3)nc3cc(CN4CCN(CCOc5ccc6c(c5)C(=O)N(C5CCC(=O)NC5=O)C6=O)CC4)ccc32)c1 (centres unmarked) [compound 56, N-(5-((4-(2-((2-(2,6-dioxopiperidin-3-yl)-1,3-dioxoisoindolin-5-yl)oxy)ethyl)piperazin-1-yl)methyl)-1-(3-methoxyphenyl)-1H-benzo[d]imidazol-2-yl)-3-(trifluoromethyl)benzamide] | ≥ 1 | ≥ 1 | 
COc1cc2nn(C3CCN(CCOCCOc4ccc5c(c4)C(=O)N(C4CCC(=O)NC4=O)C5=O)CC3)cc2cc1NC(=O)c1cccc(C(F)(F)F)n1 (centres unmarked) [compound 58, N-(2-(1-(2-(2-((2-(2,6-dioxopiperidin-3-yl)-1,3-dioxoisoindolin-5-yl)oxy)ethoxy)ethyl)piperidin-4-yl)-6-methoxy-2H-indazol-5-yl)-6-(trifluoromethyl)picolinamide] | < 0.03 | < 0.03 | Dmax (IRAK4 [3]; [6]): 50 to 70%
COc1cc2nn(C3CCN(CCOCCOCCOc4ccc5c(c4)C(=O)N(C4CCC(=O)NC4=O)C5=O)CC3)cc2cc1NC(=O)c1cccc(C(F)(F)F)n1 (centres unmarked) [compound 59, N-(2-(1-(2-(2-(2-((2-(2,6-dioxopiperidin-3-yl)-1,3-dioxoisoindolin-5-yl)oxy)ethoxy)ethoxy)ethyl)piperidin-4-yl)-6-methoxy-2H-indazol-5-yl)-6-(trifluoromethyl)picolinamide] | < 0.03 | 0.3 to 1 | Dmax (IRAK4 [3]; [6]): 50 to 70%
COc1cc2nn(C3CCN(CC4CCN(CCOc5ccc6c(c5)C(=O)N(C5CCC(=O)NC5=O)C6=O)CC4)CC3)cc2cc1NC(=O)c1cccc(C(F)(F)F)n1 (centres unmarked) [compound 63, N-(2-(1-((1-(2-((2-(2,6-dioxopiperidin-3-yl)-1,3-dioxoisoindolin-5-yl)oxy)ethyl)piperadin-4-yl)methyl)piperidin-4-yl)-6-methoxy-2H-indazol-5-yl)-6-(trifluoromethyl)picolinamide] | < 0.03 | 0.03 to 0.1 | Dmax (IRAK4 [3]; [6]): > 70%
O=C1CCC(N2C(=O)c3cccc(NCCOCCOCCN4CCN(Cc5ccc6c(c5)nc(NC(=O)c5cccc(C(F)(F)F)c5)n6[C@H]5CC[C@@H](CO)CC5)CC4)c3C2=O)C(=O)N1 (some centres unmarked) [compound 66, N-(5-((4-(2-(2-(2-((2-(2,6-dioxopiperidin-3-yl)-1,3-dioxoisoindolin-4-yl)amino)ethoxy)ethoxy)ethyl)piperazin-1-yl)methyl)-1-((1s,4s)-4-(hydroxymethyl)cyclohexyl)-1H-benzo[d]imidazol-2-yl)-3-(trifluoromethyl)benzamide] | < 0.03 | 0.3 to 1 | 
N-(1-(3-((2-(2,6- dioxopiperidin-3-yl)-1,3- dioxoisoindolin-5- yl)oxy)ethyl)(methyl)amino) phenyl)-5-(piperadin-1- yl)methyl)-1H- benzo[d]imidazol-2-yl)-3- (trifluoromethyl)benzamide [compound 68] | ≥ 1 | 0.3 to 1 | IRAK4 Dmax (%) (IRAK4 [3]; Table 5, IRAK4 degradation, 24 hour incubation): C (50 ≥ C > 30)
N-(1-((1s,4s)-4-(13-((2-(2,6- dioxopiperidin-3-yl)-1,3- dioxoisoindolin-5-yl)oxy)- 2,5,8,11- tetraoxatetradecyl)cyclohexyl)- 5-(piperidin-1-ylmethyl)-1H- benzo[d]imidazol-2-yl)-3- (trifluoromethyl)benzamide [compound 42] | 0.3 to 1 | ≥ 1 | 

The next lines start with results.

IC50 (IRAK4 [2]) [µM] | DC50 (IRAK4 [3]; [5]) [µM] | Compound | other results
< 0.03 | < 0.03 | O=C1CCC(N2C(=O)c3ccc(OCCOCCOCCOCCN4CCN(Cc5ccc6c(c5)nc(NC(=O)c5cccc(C(F)(F)F)c5)n6[C@H]5CC[C@@H](CO)CC5)CC4)cc3C2=O)C(=O)N1 (some centres unmarked) [compound 4, N-(5-((4-(2-(2-(2-(2-((2-(2,6-dioxopiperidin-3-yl)-1,3-dioxoisoindolin-5-yl)oxy)ethoxy)ethoxy)ethoxy)ethyl)piperazin-1-yl)methyl)-1-((1s,4s)-4-(hydroxymethyl)cyclohexyl)-1H-benzo[d]imidazol-2-yl)-3-(trifluoromethyl)benzamide] | IRAK4 by ELISA % degraded (IRAK4 [1]): 89%; IRAK4 by western % degraded (IRAK4 [3]; Table 1, 24 hours): 87%; DC50 (IRAK4 [3]; Table 1, 24 hours, read-out: IRAK4 by western DC50): 0.025 µM; Dmax (IRAK4 [3]; [6]): > 70%
≥ 1 | ≥ 1 | CN(CCOCCOc1ccc2c(c1)C(=O)N(C1CCC(=O)NC1=O)C2=O)c1cccc(-n2c(NC(=O)c3cccc(C(F)(F)F)c3)nc3cc(F)ccc32)c1 (centres unmarked) [compound 51, N-(1-(3-((2-(2-((2-(2,6-dioxopiperidin-3-yl)-1,3-dioxoisoindolin-5-yl)oxy)ethoxy)ethyl)(methyl)amino)phenyl)-5-fluoro-1H-benzo[d]imidazol-2-yl)-3-(trifluoromethyl)benzamide] | 
≥ 1 | ≥ 1 | CN(CCOCCOCCOCCOc1ccc2c(c1)C(=O)N(C1CCC(=O)NC1=O)C2=O)c1cccc(-n2c(NC(=O)c3cccc(C(F)(F)F)c3)nc3cc(F)ccc32)c1 (centres unmarked) [compound 52, N-(1-(3-((2-(2-(2-(2-((2-(2,6-dioxopiperidin-3-yl)-1,3-dioxoisoindolin-5-yl)oxy)ethoxy)ethoxy)ethoxy)ethyl)(methyl)amino)phenyl)-5-fluoro-1H-benzo[d]imidazol-2-yl)-3-(trifluoromethyl)benzamide] | 
≥ 1 | ≥ 1 | O=C1CCC(N2C(=O)c3ccc(OCCOCCOCCN4CCN(Cc5ccc6c(c5)nc(NC(=O)c5cccc(C(F)(F)F)c5)n6-c5ccccc5)CC4)cc3C2=O)C(=O)N1 (centres unmarked) [compound 53, N-(5-((4-(2-(2-(2-((2-(2,6-dioxopiperidin-3-yl)-1,3-dioxoisoindolin-5-yl)oxy)ethoxy)ethoxy)ethyl)piperazin-1-yl)methyl)-1-phenyl-1H-benzo[d]imidazol-2-yl)-3-(trifluoromethyl)benzamide] | 
≥ 1 | ≥ 1 | COc1cccc(-n2c(NC(=O)c3cccc(C(F)(F)F)c3)nc3cc(CN4CCN(CCOCCOCCOc5ccc6c(c5)C(=O)N(C5CCC(=O)NC5=O)C6=O)CC4)ccc32)c1 (centres unmarked) [compound 54, N-(5-((4-(2-(2-(2-((2-(2,6-dioxopiperidin-3-yl)-1,3-dioxoisoindolin-5-yl)oxy)ethoxy)ethoxy)ethyl)piperazin-1-yl)methyl)-1-(3-methoxyphenyl)-1H-benzo[d]imidazol-2-yl)-3-(trifluoromethyl)benzamide] | 
≥ 1 | ≥ 1 | O=C1CCC(N2C(=O)c3ccc(OCCN4CCN(Cc5ccc6c(c5)nc(NC(=O)c5cccc(C(F)(F)F)c5)n6-c5ccccc5)CC4)cc3C2=O)C(=O)N1 (centres unmarked) [compound 55, N-(5-((4-(2-((2-(2,6-dioxopiperidin-3-yl)-1,3-dioxoisoindolin-5-yl)oxy)ethyl)piperazin-1-yl)methyl)-1-phenyl-1H-benzo[d]imidazol-2-yl)-3-(trifluoromethyl)benzamide] | 
< 0.03 | < 0.03 | COc1cc2nn(C3CCN(CCOCCOc4ccc5c(c4)CN(C4CCC(=O)NC4=O)C5=O)CC3)cc2cc1NC(=O)c1cccc(C(F)(F)F)n1 (centres unmarked) [compound 60, N-(2-(1-(2-(2-((2-(2,6-dioxopiperidin-3-yl)-1-oxoisoindolin-5-yl)oxy)ethoxy)ethyl)piperidin-4-yl)-6-methoxy-2H-indazol-5-yl)-6-(trifluoromethyl)picolinamide] | Dmax (IRAK4 [3]; [6]): 50 to 70%; DC50 (IRAK4 [3]; western blot, 24 hour incubation, read-out: DC50 (IRAK4 degradation)): 0.0035 µM; Dmax (IRAK4 [3]; western blot, 24 hour incubation, read-out: Dmax (IRAK4 degradation)): 73%; DC50 (IRAK4 [4]): 0.0035 µM; Dmax (IRAK4 [4]; read-out: Dmax): 73%
< 0.03 | ≥ 1 | COc1cc2nn(C3CCN(CCOCCOCCOc4ccc5c(c4)CN(C4CCC(=O)NC4=O)C5=O)CC3)cc2cc1NC(=O)c1cccc(C(F)(F)F)n1 (centres unmarked) [compound 61, N-(2-(1-(2-(2-(2-((2-(2,6-dioxopiperidin-3-yl)-1-oxoisoindolin-5-yl)oxy)ethoxy)ethoxy)ethyl)piperadin-4-yl)-6-methoxy-2H-indazol-5-yl)-6-(trifluoromethyl)picolinamide] | 
